In one test the target is PTGER2 (EP2) (Homo sapiens (Human), UniProt P43116). The experiment in a line: hEP2 b-arrestin assay (PathHunter HEK 293 PTGER2 b-arrestin cells). The class given is cell-based. The note with it: hEP2 b-arrestin assay (values without asterisk). In outline: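 Readout is β-galactosidase complementation luminescence, expressed as percent of DMSO control (duplicates). PathHunter HEK293 EP2/β-arrestin 2 cells, grown 24 h, received compound for 15 min at 37 °C before a 120 min challenge with PGE2 at 5 μM final, followed by 1 h detection at room temperature.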

Another test deals with PTRGER4 (EP4) (Homo sapiens (Human), UniProt P35408). The experiment in a line: hEP4 b-arrestin assay (PathHunter HEK 293 PTGER4 b-arrestin cells). The class given is cell-based. The settings on record: hEP4 b-arrestin assay (values without asterisk). In outline:
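Antagonist mode: compound is given 15 min at 37 °C, then 20 nM (final) PGE2 for 120 min, in HEK293 cells stably expressing EP4 fused to ProLink and β-arrestin 2 fused to EA. Recruitment read as β-gal luminescence after 1 h reagent at room temperature, as percent of DMSO control.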

SMILES strings stand for the structures.

Chain of PTRGER4 (EP4) (P35408 whole entry, looked up, the tested form may be a part): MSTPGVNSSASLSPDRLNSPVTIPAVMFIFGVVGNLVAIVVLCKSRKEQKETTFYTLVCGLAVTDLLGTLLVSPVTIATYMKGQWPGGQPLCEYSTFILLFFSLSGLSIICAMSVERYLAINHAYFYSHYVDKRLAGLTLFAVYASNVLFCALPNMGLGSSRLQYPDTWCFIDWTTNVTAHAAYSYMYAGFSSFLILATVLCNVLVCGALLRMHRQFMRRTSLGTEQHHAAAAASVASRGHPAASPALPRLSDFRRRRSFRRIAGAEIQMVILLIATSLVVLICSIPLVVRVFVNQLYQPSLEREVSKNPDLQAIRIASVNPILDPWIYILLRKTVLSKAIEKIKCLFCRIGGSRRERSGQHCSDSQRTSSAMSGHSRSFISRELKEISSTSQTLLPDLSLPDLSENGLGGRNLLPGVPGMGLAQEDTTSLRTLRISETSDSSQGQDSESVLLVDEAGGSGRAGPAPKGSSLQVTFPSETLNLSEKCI
Chain of PTGER2 (EP2) (P43116 whole entry): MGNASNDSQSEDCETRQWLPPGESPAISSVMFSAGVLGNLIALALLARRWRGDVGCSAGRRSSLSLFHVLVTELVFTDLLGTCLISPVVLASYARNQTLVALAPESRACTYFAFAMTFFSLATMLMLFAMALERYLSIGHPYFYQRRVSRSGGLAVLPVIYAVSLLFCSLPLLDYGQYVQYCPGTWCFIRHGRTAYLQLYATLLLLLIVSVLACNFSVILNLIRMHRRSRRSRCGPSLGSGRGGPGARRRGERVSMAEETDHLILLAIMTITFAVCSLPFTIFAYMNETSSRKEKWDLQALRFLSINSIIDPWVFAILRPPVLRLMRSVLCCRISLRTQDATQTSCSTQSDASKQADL

As usually defined, the IC50 is the concentration that inhibits the measured activity by half. A high value points to a need for much substance. Turning to `CCOc1cc(C(=O)O)cc(-c2cc(NCCn3c(C#N)cc4c(OC)ccc(F)c43)ncn2)c1` [Example 1002, 3-{6-[2-(2-Cyano-7-fluoro-4-methoxy-indol-1-yl)-ethylamino]-pyrimidin-4-yl}-5-ethoxy-benzoic acid], the figures for the IC50 at PTGER2 (EP2) and on PTRGER4 (EP4) were 0.02 µM and 0.031 µM, respectively.
The matching figures for `COc1ccc(F)c2c1cc(C#N)n2CCNc1cc(-c2ccnc(N3CCOCC3)c2)ncn1` [Example 1003, 7-Fluoro-4-methoxy-1-{2-[6-(2-morpholin-4-yl-pyridin-4-yl)-pyrimidin-4-ylamino]-ethyl}-1H-indole-2-carbonitrile]: 0.055 µM and 0.131 µM.
The matching figures for `COc1ccc(F)c2c1cc(C#N)n2CCNc1cc(-c2cccc(CC(=O)O)c2)ncn1` [Example 1004, (3-{6-[2-(2-Cyano-7-fluoro-4-methoxy-indol-1-yl)-ethylamino]-pyrimidin-4-yl}-phenyl)-acetic acid]: 0.117 µM and 0.144 µM.
Turning to `COc1cc(C(=O)O)cc(-c2cc(NCCn3c(C#N)cc4c(OC)ccc(F)c43)ncn2)c1` [Example 1005, 3-{6-[2-(2-Cyano-7-fluoro-4-methoxy-indol-1-yl)-ethylamino]-pyrimidin-4-yl}-5-methoxy-benzoic acid], the IC50 at PTGER2 (EP2) turned out to be 0.018 µM; against PTRGER4 (EP4), 0.055 µM.
The matching figures for `COc1ccc(F)c2c1cc(C#N)n2CCNc1cc(-c2ccnc(OC(F)F)c2)ncn1` [Example 1006, 1-{2-[6-(2-Difluoromethoxy-pyridin-4-yl)-pyrimidin-4-ylamino]-ethyl}-7-fluoro-4-methoxy-1H-indole-2-carbonitrile]: 0.131 µM and 0.45 µM.
For `COc1ccc(F)c2c1cc(C#N)n2CCNc1cc(-c2ccnc(C(F)(F)F)c2)ncn1` [Example 1007, 7-Fluoro-4-methoxy-1-{2-[6-(2-trifluoromethyl-pyridin-4-yl)-pyrimidin-4-ylamino]-ethyl}-1H-indole-2-carbonitrile], the IC50 stood at 0.024 µM on PTGER2 (EP2) and 0.067 µM on PTRGER4 (EP4).
The matching figures for `COc1ccc(F)c2c1cc(C#N)n2CCNc1cc(-c2cc(C(=O)O)cs2)ncn1` [Example 1008, 5-{6-[2-(2-Cyano-7-fluoro-4-methoxy-indol-1-yl)-ethylamino]-pyrimidin-4-yl}-thiophene-3-carboxylic acid]: 0.234 µM and 0.507 µM.
In the same order, the values of `CCOC(=O)c1csc(-c2cc(NCCn3c(C#N)cc4c(OC)ccc(F)c43)ncn2)c1` [Example 1009, 5-{6-[2-(2-Cyano-7-fluoro-4-methoxy-indol-1-yl)-ethylamino]-pyrimidin-4-yl}-thiophene-3-carboxylic acid ethyl ester] are 0.02 µM and 0.011 µM.
In the same order, the values of `CNc1cc(-c2cc(NCCn3c(C#N)cc4c(OC)ccc(F)c43)ncn2)ccc1C(=O)O` [Example 1010, 4-{6-[2-(2-Cyano-7-fluoro-4-methoxy-indol-1-yl)-ethylamino]-pyrimidin-4-yl}-2-methylamino-benzoic acid] are 0.003 µM and 0.007 µM.
On to `COc1ccc(F)c2c1cc(C#N)n2CCNc1cc(-c2cccc(CCC(=O)O)c2)ncn1` [Example 1011, 3-(3-{6-[2-(2-Cyano-7-fluoro-4-methoxy-indol-1-yl)-ethylamino]-pyrimidin-4-yl}-phenyl)-propionic acid], for which the IC50 was found to be 0.12 µM at PTGER2 (EP2) and 0.228 µM on PTRGER4 (EP4).
In the same order, the values of `CNc1cc(-c2cc(NCCn3c(C)cc4c(C)c(F)cc(F)c43)ncn2)ccc1C(=O)O` [Example 1012, 4-{6-[2-(5,7-Difluoro-2,4-dimethyl-indol-1-yl)-ethylamino]-pyrimidin-4-yl}-2-methylamino-benzoic acid] are 0.005 µM and 0.037 µM.
For `COc1ccc(F)c2c1cc(C)n2CCNc1cc(-c2cc(OC(C)C)c(CCC(=O)O)s2)ncn1` [Example 1013, 3-(5-{6-[2-(7-Fluoro-4-methoxy-2-methyl-indol-1-yl)-ethylamino]-pyrimidin-4-yl}-3-isopropoxy-thiophen-2-yl)-propionic acid], the results for the IC50 on PTGER2 (EP2) and on PTRGER4 (EP4) were 0.014 µM and 0.017 µM, respectively.
In the same order, the values of `CCOc1cc(-c2cc(NCCn3c(C)cc4c(OC)ccc(F)c43)ncn2)[nH]c1C(=O)O` [Example 1014, 3-Ethoxy-5-{6-[2-(7-fluoro-4-methoxy-2-methyl-indol-1-yl)-ethylamino]-pyrimidin-4-yl}-1H-pyrrole-2-carboxylic acid] are 0.007 µM and 0.351 µM.
With `CCOc1cc(-c2cc(NCCn3c(C)cc4c(OC)ccc(F)c43)ncn2)sc1CCC(=O)O` [Example 1015, 3-(3-Ethoxy-5-{6-[2-(7-fluoro-4-methoxy-2-methyl-indol-1-yl)-ethylamino]-pyrimidin-4-yl}-thiophen-2-yl)-propionic acid], the values for the IC50 at PTGER2 (EP2) and on PTRGER4 (EP4) were 0.015 µM and 0.018 µM, respectively.
In the same order, the values of `CCOc1cc(-c2cc(NCCn3c(C)cc4c(OC)ccc(F)c43)ncn2)sc1/C=C/C(=O)O` [Example 1016, (E)-3-(3-Ethoxy-5-{6-[2-(7-fluoro-4-methoxy-2-methyl-indol-1-yl)-ethylamino]-pyrimidin-4-yl}-thiophen-2-yl)-acrylic acid] are 0.005 µM and 0.005 µM.
Consider `CNc1cc(-c2cc(NCCn3c(C)cc4c(OC)cc(F)cc43)ncn2)ccc1C(=O)O` [Example 1017, 4-{6-[2-(6-Fluoro-4-methoxy-2-methyl-indol-1-yl)-ethylamino]-pyrimidin-4-yl}-2-methylamino-benzoic acid], for which the IC50 against PTGER2 (EP2) is 0.007 µM; against PTRGER4 (EP4), 0.031 µM.
With `COc1ccc(F)c2c1cc(C#N)n2CCNc1cc(-c2ccc(C(O)(O)C(F)(F)F)cc2)ncn1` [Example 1018, 7-Fluoro-4-methoxy-1-(2-{6-[4-(2,2,2-trifluoro-1,1-dihydroxy-ethyl)-phenyl]-pyrimidin-4-ylamino}-ethyl)-1H-indole-2-carbonitrile], the IC50 at PTGER2 (EP2) came to 0.094 µM; at PTRGER4 (EP4), 0.069 µM.
On to `COc1ccc(F)c2c1cc(C#N)n2CCNc1cc(-c2ccc(CCC(=O)O)cc2)ncn1` [Example 1019, 3-(4-{6-[2-(2-Cyano-7-fluoro-4-methoxy-indol-1-yl)-ethylamino]-pyrimidin-4-yl}-phenyl)-propionic acid], for which the results for the IC50 against PTGER2 (EP2) and on PTRGER4 (EP4) were 0.485 µM and 0.167 µM, respectively.
Turning to `N#Cc1cc2c(Cl)cccc2n1CCNc1cc(-c2cc(Cl)c(C(=O)O)s2)ncn1` [Example 1020, 3-Chloro-5-{6-[2-(4-chloro-2-cyano-indol-1-yl)-ethylamino]-pyrimidin-4-yl}-thiophene-2-carboxylic acid], the IC50 against PTGER2 (EP2) came out at 0.002 µM; against PTRGER4 (EP4) it was 0.029 µM.
The matching figures for `CCOc1cc(-c2cc(NCCn3c(C)cc4c(OC)ccc(F)c43)ncn2)sc1C(=O)NS(C)(=O)=O` [Example 1022, N-(3-Ethoxy-5-{6-[2-(7-fluoro-4-methoxy-2-methyl-indol-1-yl)-ethylamino]-pyrimidin-4-yl}-thiophene-2-carbonyl)-methanesulfonamide]: 0.004 µM and 0.018 µM.
In the same order, the values of `CCOc1cc(-c2cc(NCCn3c(C#N)cc4c(OC)ccc(F)c43)ncn2)sc1C(=O)NC` [Example 1023, 5-{6-[2-(2-Cyano-7-fluoro-4-methoxy-indol-1-yl)-ethylamino]-pyrimidin-4-yl}-3-ethoxy-thiophene-2-carboxylic acid methylamide] are 0.008 µM and 0.001 µM.
In the case of `CCNC(=O)c1sc(-c2cc(NCCn3c(C#N)cc4c(OC)ccc(F)c43)ncn2)cc1OCC` [Example 1024, 5-{6-[2-(2-Cyano-7-fluoro-4-methoxy-indol-1-yl)-ethylamino]-pyrimidin-4-yl}-3-ethoxy-thiophene-2-carboxylic acid ethylamide], the half-maximal inhibitory concentration (IC50) at PTGER2 (EP2) turned out to be 0.014 µM; against PTRGER4 (EP4) it was 0.002 µM.
For `CCOc1cc(-c2cc(NCCn3c(C#N)cc4c(OC)ccc(F)c43)ncn2)sc1C(=O)N(C)C` [Example 1025, 5-{6-[2-(2-Cyano-7-fluoro-4-methoxy-indol-1-yl)-ethylamino]-pyrimidin-4-yl}-3-ethoxy-thiophene-2-carboxylic acid dimethylamide], the figures for the IC50 against PTGER2 (EP2) and against PTRGER4 (EP4) were 0.033 µM and 0.006 µM, respectively.
In the case of `CCOc1cc(-c2cc(NCCn3c(C#N)cc4c(OC)ccc(F)c43)ncn2)sc1C(=O)NCCO` [Example 1026, 5-{6-[2-(2-Cyano-7-fluoro-4-methoxy-indol-1-yl)-ethylamino]-pyrimidin-4-yl}-3-ethoxy-thiophene-2-carboxylic acid (2-hydroxy-ethyl)-amide], the figures for the IC50 against PTGER2 (EP2) and against PTRGER4 (EP4) were 0.021 µM and 0.001 µM, respectively.
Turning to `CCOc1cc(-c2cc(NCCn3c(C#N)cc4c(OC)ccc(F)c43)ncn2)sc1C(=O)NC(C)C` [Example 1027, 5-{6-[2-(2-Cyano-7-fluoro-4-methoxy-indol-1-yl)-ethylamino]-pyrimidin-4-yl}-3-ethoxy-thiophene-2-carboxylic acid isopropylamide], the IC50 is 0.039 µM against PTGER2 (EP2) and 0.003 µM against PTRGER4 (EP4).
The matching figures for `CCOc1cc(-c2cc(NCCn3c(C#N)cc4c(OC)ccc(F)c43)ncn2)sc1C(=O)NCCOC` [Example 1028, 5-{6-[2-(2-Cyano-7-fluoro-4-methoxy-indol-1-yl)-ethylamino]-pyrimidin-4-yl}-3-ethoxy-thiophene-2-carboxylic acid (2-methoxy-ethyl)-amide]: 0.009 µM and 0.002 µM.
For the molecule `CCOc1cc(-c2cc(NCCn3c(C#N)cc4c(OC)ccc(F)c43)ncn2)sc1C(=O)NS(N)(=O)=O` [Example 1029, 5-(6-((2-(2-Cyano-7-fluoro-4-methoxy-1H-indol-1-yl)ethyl)amino)pyrimidin-4-yl)-3-ethoxy-N-sulfamoylthiophene-2-carboxamide], the IC50 on PTGER2 (EP2) turned out to be 0.004 µM; on PTRGER4 (EP4), 0.006 µM.
